# Results published in patent publication US4659730A, “Aromatase inhibiting imidazole derivatives” (Eli Lilly and Company, priority 1984, dated 1987).
# Counter-ions that a name gives are not always drawn. Like-named read-outs stand apart in the source and are kept apart here.
# Tests used:
# [1] = biological target: T1, aromatase (Rattus norvegicus, UniProt P22443); assay: biochemical
# T1 sequence (P22443 1-508): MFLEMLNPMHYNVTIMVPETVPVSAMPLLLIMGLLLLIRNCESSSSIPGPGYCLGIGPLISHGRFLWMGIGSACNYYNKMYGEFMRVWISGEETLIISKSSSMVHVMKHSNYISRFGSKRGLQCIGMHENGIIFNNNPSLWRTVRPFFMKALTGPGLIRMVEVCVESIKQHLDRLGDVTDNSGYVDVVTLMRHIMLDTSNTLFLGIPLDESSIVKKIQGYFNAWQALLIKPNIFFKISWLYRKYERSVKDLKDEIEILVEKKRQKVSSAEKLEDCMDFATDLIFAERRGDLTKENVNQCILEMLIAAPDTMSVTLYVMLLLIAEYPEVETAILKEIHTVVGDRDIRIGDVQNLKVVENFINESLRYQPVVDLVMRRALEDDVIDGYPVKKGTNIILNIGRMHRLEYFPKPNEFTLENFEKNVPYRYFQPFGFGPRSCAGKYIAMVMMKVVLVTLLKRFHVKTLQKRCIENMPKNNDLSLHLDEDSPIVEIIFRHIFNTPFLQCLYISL
# Description: In this test system, ovarian microsomes are obtained from rats treated with pregnant mares serum gonadotropin. Test compounds are added to reaction vials containing 0.1 μM 4-androstene-3,17-dione, 100,000 dpm 1,2[^3 H]-androstenedione, the microsomes and a NADPH generating system. The concentrations of the inhibitors tested ranged between 0.005 and 10 μM.
# [2] = tested on: breast cancer; settings: known aromatase inhibitors; Cancer Research, Vol. 42, Suppl. 8:3261s (1982); cited from earlier work
# [3] = tested on: aromatization (estrogen synthesis); assay: Estrogen synthesis inhibition in rats (uterine weight and ovarian steroid levels); format: in vivo, rat (immature female Wistar); settings: 7 days; for Mean Uterine Weight: testosterone propionate-treated rats; for Mean Steroid Concentration, estrone / Mean Steroid Concentration, estriol / Mean Steroid Concentration, estradiol: ovaries; for Mean Steroid Concentration, estrone: testosterone-treated control 0.19; for Mean Steroid Concentration, estriol: testosterone-treated control 0.53; for Mean Steroid Concentration, estradiol: testosterone-treated control 0.55
# [4] = rat ovarian microsomes, substrate (androstenedione) concentration 0.1 μM
# [5] = 30 ppm in feed (approx. 3 mg/kg/day)
# [6] = 300 ppm in feed (approx. 30 mg/kg/day)
compound,measurement,setting,value
"Clc1ccc2c(c1)C(n1ccnc1)CCC2 (stereo not drawn) [1-(7-chloro-1,2,3,4-tetrahydro-1-naphthalenyl)-1H--imidazole nitrate]",EC50,[1]; [4],0.1 µM
c1ccc2c(c1)CCC2n1ccnc1 (stereo not drawn) [nitrate],EC50,[1],0.81 µM
C[C@]12C=CC(=O)C=C1CC[C@@H]1[C@@H]2CC[C@]2(C)OC(=O)CC[C@@H]12 [testolactone],effect in treatment of breast cancer,[2],beneficial effect in treatment of breast cancer
COc1ccc2c(c1)C(n1ccnc1)CCC2 (stereo not drawn) [nitrate],EC50,[1],0.45 µM
Clc1cc(Cl)c2c(c1)C(n1ccnc1)CC2 (stereo not drawn) [nitrate],EC50,[1],0.115 µM
COc1ccc(OC)c2c1CCC2n1ccnc1 (stereo not drawn) [nitrate],EC50,[1],0.87 µM
CCC1(c2ccc(N)cc2)CCC(=O)NC1=O (stereo not drawn) [aminoglutethimide],effect in treatment of breast cancer,[2],beneficial effect in treatment of breast cancer
c1ccc2c(c1)CCCC2n1ccnc1 (stereo not drawn) [nitrate],EC50,[1],0.52 µM
Clc1cc2c(cc1Cl)C(n1ccnc1)CC2.O=[N+]([O-])O (stereo not drawn) [nitrate],EC50,[1],0.078 µM
Clc1cc2c(cc1Cl)C(n1ccnc1)CC2.O=[N+]([O-])O (stereo not drawn),Mean Uterine Weight,"[3]; 30 ppm in feed (approx. 3 mg/kg/day), 4 animals, testosterone-treated control 140.8",152.5 mg
same,Mean Uterine Weight,"[3]; 300 ppm in feed (approx. 30 mg/kg/day), 5 animals, significantly different from testosterone-treated control (140.8), p < 0.05",103.2 mg
same,"Mean Steroid Concentration, estrone",[3]; [5],0.21 femtomoles per milligram of protein
same,"Mean Steroid Concentration, estriol",[3]; [5],0.46 femtomoles per milligram of protein
same,"Mean Steroid Concentration, estradiol",[3]; [5],0.71 femtomoles per milligram of protein
same,"Mean Steroid Concentration, estrone",[3]; [6],0.17 femtomoles per milligram of protein
same,"Mean Steroid Concentration, estriol",[3]; [6],0.49 femtomoles per milligram of protein
same,"Mean Steroid Concentration, estradiol",[3]; [6],0.35 femtomoles per milligram of protein
c1ccc2c(c1)SCCC2n1ccnc1 (stereo not drawn) [nitrate],EC50,[1],1.02 µM
COc1cccc2c1CCCC2n1ccnc1 (stereo not drawn) [nitrate],EC50,[1],0.25 µM
"c1ccc2c(c1)OCCC2n1ccnc1 (stereo not drawn) [1-(3,4-dihydro-2H-1-benzopyran-4-yl)-1H-imidazole hydrochloride]",EC50,[1]; [4],2.8 µM
"Clc1cccc2c1CCC2n1ccnc1 (stereo not drawn) [1-(4-chloro-2,3-dihydro-1H--inden-1-yl)-1H--imidazole nitrate]",EC50,[1]; [4],0.68 µM
